Values of other authors as cited in patent US20110066230A1, “Fluorinated GHRH Antagonists” (priority 2009, published 2011).

Tests used:
[1] = test system: rat anterior pituitary adenylate cyclase
pituitary receptors = molecular target: T1, pituitary receptors (Homo sapiens, UniProt Q02643); settings: biological activity on the pituitary
T1 sequence (Q02643 23-423): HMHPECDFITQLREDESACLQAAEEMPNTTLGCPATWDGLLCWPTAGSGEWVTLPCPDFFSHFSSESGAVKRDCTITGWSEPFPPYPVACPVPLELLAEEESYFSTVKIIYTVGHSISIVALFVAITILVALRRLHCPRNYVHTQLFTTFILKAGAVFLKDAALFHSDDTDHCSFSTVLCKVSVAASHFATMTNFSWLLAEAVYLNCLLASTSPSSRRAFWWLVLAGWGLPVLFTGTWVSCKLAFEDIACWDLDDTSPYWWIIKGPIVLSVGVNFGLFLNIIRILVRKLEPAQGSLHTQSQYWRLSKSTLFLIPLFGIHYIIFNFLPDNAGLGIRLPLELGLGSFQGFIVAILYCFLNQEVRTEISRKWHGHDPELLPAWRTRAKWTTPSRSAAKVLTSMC

[2] = normal subjects, large doses (400 μg/kg)

Row | activation of rat anterior pituitary adenylate cyclase by hGH-RH(1-29)NH2 [1] | potency retained relative to native GH-RH (pituitary receptors) | Substance | GH levels (GH secretion; a patient with acromegaly) | nocturnal GH secretion (GH secretion; [2]) | response to GH-RH (GH secretion; [2])
1 | prevent the activation |  | [Ac-Tyr^1,D-Arg^2]hGH-RH(1-29)NH2 [standard antagonist] | reduced GH levels | eliminated nocturnal GH secretion | inhibited the response to GH-RH
2 |  | ≥ 50% | Tyr-Ala-Asp-Ala-Ile^5-Phe-Thr-Asn-Ser-Tyr^10-Arg-Lys-Val-Leu-Gly^15-Gln-Leu-Ser-Ala-Arg^20-Lys-Leu-Leu-Gln-Asp^25-Ile-Met-Ser-Arg^29-NH2 [GH-RH(1-29)] |  |  | 
